Reference: patent publication US8796325B2, “Metronidazole esters for treating rosacea” (Galderma Research & Development, priority 2010, dated 2014)
Entries after “also recorded” stand apart in the source; their conditions may differ.

How the values were obtained:
[1] = system: human neonatal keratinocytes; experiment: Stability evaluated on keratinocyte cultures; format: in vitro ADME; details: over 24 hours
Experimental: (§1) The stability on keratinocyte cultures is evaluated using human neonatal keratinocytes (Cell'N Tech) cultured in a 75 cm^2 flask and detached at 90-100% of confluence with vegetable trypsin (trypLE GIBCO). The compound of formula (I) was tested at 2 μM in the medium CNT-057 (Cell'N Tech) supplemented with 0.1% pluronic acid in 24-well plates. The final DMSO concentration is 0.1%. Degradation kinetics are performed with a Tecan EVO robot over 24 hours. The samples taken are then assayed by LC/MS/MS (Micromass) in comparison with a calibration range of the test product, prepared under the same conditions as the samples (⅓ culture medium and ⅔ methanol). The chromatographic conditions are optimized for each product. An assay of the appearance of metronidazole is also performed using these same samples.

[2] = Stability evaluated on keratinocyte cultures; format: in vitro ADME; details: human, human neonatal keratinocyte cultures; keratinocyte cultures; 2 μM in medium CNT-057 with 0.1% pluronic acid, 0.1% DMSO; degradation kinetics over 24 hours; LC/MS/MS; read-out: half-life time (t1/2) (converted)
Experimental: as §1

Row | half-life at 2 μM [2] [h] | melting point [°C] | SMILES | stability / hydrolysis of the ester on keratinocyte cultures (in words) [1]
1 |  |  | Cc1ncc([N+](=O)[O-])n1CCOC(=O)c1cc(-c2ccc(F)cc2F)ccc1O [metronidazole ester with diflunisal] | stable in the presence of keratinocytes; also recorded: do not become hydrolysed
2 |  |  | Cc1ncc([N+](=O)[O-])n1CCOC(=O)c1cccnc1Nc1cccc(C(F)(F)F)c1 [metronidazole ester with niflumic acid] | stable in the presence of keratinocytes; also recorded: do not become hydrolysed
3 | 8 | 122 to 124 | Cc1ncc([N+](=O)[O-])n1CCOC(=O)Cc1ccccc1Nc1c(Cl)cccc1Cl [compound of formula (I), 2-(2-methyl-5-nitroimidazol-1-yl)ethyl [2-(2,6-dichlorophenylamino)phenyl]acetate] | specifically cleaved in keratinocytes
4 |  |  | COc1ccc2c(c1)c(CC(=O)OCCn1c([N+](=O)[O-])cnc1C)c(C)n2C(=O)c1ccc(Cl)cc1 [metronidazole ester with indomethacin] | stable in the presence of keratinocytes; also recorded: do not become hydrolysed
5 |  |  | Cc1ncc([N+](=O)[O-])n1CCOC(=O)C1CCn2c(C(=O)c3ccccc3)ccc21 (stereo not shown) [metronidazole ester with ketorolac] | stable in the presence of keratinocytes; also recorded: do not become hydrolysed
